In patent US20240174662A1, “SMALL MOLECULE INHIBITORS OF SALT INDUCIBLE KINASES” (Janssen Biotech, Inc., priority 2021, published 2024):
Several values for one entry are separate records, joined by “and”; a condition that tells them apart may be missing. Equal entries are not always repeated.

biological target: SIK2 (Homo sapiens (Human), UniProt Q9H0K1); assay: SIK2 Enzymatic Assay Version 2 (High ATP); type: biochemical; details: 3 mM ATP and 200 μM HDAC5tide final, ADP-Glo Max luminescence
Outline: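 Run at room temperature; SIK2 enzyme at 6 nM (2× final) preincubated with compound 30 min before reaction. ADP formation detected by ADP-Glo Max (2 h reagent, 1 h detection) with luminescence read-out.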

Chain of SIK2 (Q9H0K1 whole entry, species assumed): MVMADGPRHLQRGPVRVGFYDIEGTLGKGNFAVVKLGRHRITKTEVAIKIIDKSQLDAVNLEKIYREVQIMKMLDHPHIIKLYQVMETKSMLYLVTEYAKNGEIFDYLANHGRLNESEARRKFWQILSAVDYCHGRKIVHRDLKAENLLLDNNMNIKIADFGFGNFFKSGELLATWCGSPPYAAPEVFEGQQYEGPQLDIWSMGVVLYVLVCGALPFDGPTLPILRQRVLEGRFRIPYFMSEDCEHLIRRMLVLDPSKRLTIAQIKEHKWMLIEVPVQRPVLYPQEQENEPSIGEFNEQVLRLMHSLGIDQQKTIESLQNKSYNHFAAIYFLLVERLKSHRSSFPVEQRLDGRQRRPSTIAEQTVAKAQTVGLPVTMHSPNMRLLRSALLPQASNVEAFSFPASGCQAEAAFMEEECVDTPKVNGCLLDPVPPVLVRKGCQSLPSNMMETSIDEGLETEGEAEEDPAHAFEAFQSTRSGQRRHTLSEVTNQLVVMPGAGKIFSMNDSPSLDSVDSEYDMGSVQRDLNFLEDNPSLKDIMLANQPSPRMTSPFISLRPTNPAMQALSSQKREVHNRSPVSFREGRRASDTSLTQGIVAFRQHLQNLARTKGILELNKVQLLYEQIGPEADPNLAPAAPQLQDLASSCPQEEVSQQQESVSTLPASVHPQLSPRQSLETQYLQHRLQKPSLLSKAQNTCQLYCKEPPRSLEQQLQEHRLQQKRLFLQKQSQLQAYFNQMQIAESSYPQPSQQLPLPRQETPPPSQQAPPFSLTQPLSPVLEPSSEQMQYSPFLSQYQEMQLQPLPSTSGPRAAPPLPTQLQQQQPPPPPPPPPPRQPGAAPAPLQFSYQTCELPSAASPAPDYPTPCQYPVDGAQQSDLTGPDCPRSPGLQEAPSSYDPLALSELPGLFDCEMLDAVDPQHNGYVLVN

Structure (SMILES) | IC50
Cc1onc(O[C@H]2CCN(C)C2)c1-c1ccn2nc(NC(=O)C3CC3)cc2c1 [Example 382, N-[5-[5-methyl-3-[(3S)-1-methylpyrrolidin-3-yl]oxy-isoxazol-4-yl]pyrazolo[1,5-a]pyridin-2-yl]cyclopropanecarboxamide] | 96.1 nM
Cc1onc(OC[C@@H]2CCCNC2)c1-c1ccn2nc(NC(=O)C3CC3)cc2c1 [Example 383, N-[5-[5-methyl-3-[[(3R)-3-piperidyl]methoxy]isoxazol-4-yl]pyrazolo[1,5-a]pyridin-2-yl]cyclopropanecarboxamide] | 89.9 nM
[2H]C([2H])([2H])N1CC[C@H](Oc2noc(C)c2-c2ccn3nc(NC(=O)C4CC4)cc3c2)C1 [Example 384, N-[5-[5-methyl-3-[(3S)-1-(trideuteriomethyl)pyrrolidin-3-yl]oxy-isoxazol-4-yl]pyrazolo[1,5-a]pyridin-2-yl]cyclopropanecarboxamide] | 161 nM
Cc1onc(O[C@H]2C[C@H](N)C2)c1-c1ccn2nc(NC(=O)C3CC3)cc2c1 [Example 386, N-[5-[3-(3-aminocyclobutoxy)-5-methyl-isoxazol-4-yl]pyrazolo[1,5-a]pyridin-2-yl]cyclopropanecarboxamide] | 111 nM
Cc1onc(OC[C@H]2CCCN2C)c1-c1ccn2nc(NC(=O)C3CC3)cc2c1 [Example 388, N-[5-[5-methyl-3-[[(2R)-1-methylpyrrolidin-2-yl]methoxy]isoxazol-4-yl]pyrazolo[1,5-a]pyridin-2-yl]cyclopropanecarboxamide] | 146 nM
Cc1onc(O[C@@H]2CN[C@H](C(F)F)C2)c1-c1ccn2nc(NC(=O)C3CC3)cc2c1 [Example 389, N-[5-[3-[(3S,5S)-5-(difluoromethyl)pyrrolidin-3-yl]oxy-5-methyl-isoxazol-4-yl]pyrazolo[1,5-a]pyridin-2-yl]cyclopropanecarboxamide] | 125 nM
COC[C@@H]1C[C@H](Oc2noc(C)c2-c2ccn3nc(Nc4cc(C)c(C)nn4)cc3c2)CN1C [Example 391, N-(5,6-dimethylpyridazin-3-yl)-5-[3-[(3S,5S)-5-(methoxymethyl)-1-methyl-pyrrolidin-3-yl]oxy-5-methyl-isoxazol-4-yl]pyrazolo[1,5-a]pyridin-2-amine] | 94.1 nM
Cc1cnc(Nc2cc3cc(-c4c(OC[C@H]5CCN5)cnn4C)ccn3n2)cn1 [Example 393, 5-[4-[[(2R)-azetidin-2-yl]methoxy]-2-methyl-pyrazol-3-yl]-N-(5-methylpyrazin-2-yl)pyrazolo[1,5-a]pyridin-2-amine] | 98.4 nM
Cn1ncc(OC[C@H]2CCN2)c1-c1ccn2nc(Nc3ccc(C4CC4)nn3)cc2c1 [Example 394, 5-[4-[[(2R)-azetidin-2-yl]methoxy]-2-methyl-pyrazol-3-yl]-N-(6-cyclopropylpyridazin-3-yl)pyrazolo[1,5-a]pyridin-2-amine] | 103 nM
CN1CC[C@@H]1COc1cnn(C)c1-c1ccn2nc(Nc3ncc(F)cn3)cc2c1 [Example 395, N-(5-fluoropyrimidin-2-yl)-5-[2-methyl-4-[[(2R)-1-methylazetidin-2-yl]methoxy]pyrazol-3-yl]pyrazolo[1,5-a]pyridin-2-amine] | 97.5 nM
CN1CC[C@@H](COc2cnn(C)c2-c2ccn3nc(NC(=O)C4CC4)cc3c2)C1 [Example 396, N-[5-[2-methyl-4-[[(3R)-1-methylpyrrolidin-3-yl]methoxy]pyrazol-3-yl]pyrazolo[1,5-a]pyridin-2-yl]cyclopropanecarboxamide] | 60.5 nM and 93.2 nM
Cn1ncc(OC2CNC2)c1-c1ccn2nc(NC(=O)C3CC3)cc2c1 [Example 397, N-[5-[4-(azetidin-3-yloxy)-2-methyl-pyrazol-3-yl]pyrazolo[1,5-a]pyridin-2-yl]cyclopropanecarboxamide] | 128 nM
CCn1ncc(OC[C@@H]2CCN(C)C2)c1-c1ccn2nc(NC(=O)C3CC3)cc2c1 [Example 398, N-[5-[2-ethyl-4-[[(3R)-1-methylpyrrolidin-3-yl]methoxy]pyrazol-3-yl]pyrazolo[1,5-a]pyridin-2-yl]cyclopropanecarboxamide] | 97.8 nM
CN1CC(Oc2cnn(C)c2-c2ccn3nc(NC(=O)C4CC4)cc3c2)C1 [Example 399, N-[5-[2-methyl-4-(1-methylazetidin-3-yl)oxy-pyrazol-3-yl]pyrazolo[1,5-a]pyridin-2-yl]cyclopropanecarboxamide] | 174 nM
Cn1ncc(OC[C@H]2C[C@@H](N)C2)c1-c1ccn2nc(NC(=O)C3CC3)cc2c1 [Example 400, N-[5-[4-[(3-aminocyclobutyl)methoxy]-2-methyl-pyrazol-3-yl]pyrazolo[1,5-a]pyridin-2-yl]cyclopropanecarboxamide] | 108 nM
Cn1ncc(OCC2(N)COC2)c1-c1ccn2nc(NC(=O)C3CC3)cc2c1 [Example 402, N-[5-[4-[(3-aminooxetan-3-yl)methoxy]-2-methyl-pyrazol-3-yl]pyrazolo[1,5-a]pyridin-2-yl]cyclopropanecarboxamide] | 92.4 nM
Cn1ncc(OC[C@H](O)c2ccccc2)c1-c1ccn2nc(NC(=O)C3CC3)cc2c1 [Example 403, N-[5-[4-[(2R)-2-hydroxy-2-phenyl-ethoxy]-2-methyl-pyrazol-3-yl]pyrazolo[1,5-a]pyridin-2-yl]cyclopropanecarboxamide] | 99.7 nM
Cn1ncc(O[C@H]2CC[C@@H](O)CC2)c1-c1ccn2nc(NC(=O)C3CC3)cc2c1 [Example 404, N-[5-[4-(4-hydroxycyclohexoxy)-2-methyl-pyrazol-3-yl]pyrazolo[1,5-a]pyridin-2-yl]cyclopropanecarboxamide] | 120 nM

More lines, now with the values ahead:

IC50 | Structure (SMILES)
52.6 nM | CO[C@H]1CNC[C@@H]1COc1cnn(C)c1-c1ccn2nc(NC(=O)C3CC3)cc2c1 [Example 351, N-[5-[4-[[(3R,4R)-4-methoxypyrrolidin-3-yl]methoxy]-2-methyl-pyrazol-3-yl]pyrazolo[1,5-a]pyridin-2-yl]cyclopropanecarboxamide]
67.3 nM | Cc1cc(Nc2cc3cc(-c4c(O[C@@H]5CCN(C)[C@H]5C)cnn4C)ccn3n2)nc(C)n1 [Example 354, N-(2,6-dimethylpyrimidin-4-yl)-5-[4-[(2S,3R)-1,2-dimethylpyrrolidin-3-yl]oxy-2-methyl-pyrazol-3-yl]pyrazolo[1,5-a]pyridin-2-amine]
< 0.847 nM | [2H]C([2H])([2H])N1CC[C@@H]1COc1cnn(C([2H])([2H])[2H])c1-c1ccn2nc(Nc3cc(C)nc(C)n3)cc2c1 [Example 355, N-(2,6-dimethylpyrimidin-4-yl)-5-[2-(trideuteriomethyl)-4-[[(2R)-1-(trideuteriomethyl)azetidin-2-yl]methoxy]pyrazol-3-yl]pyrazolo[1,5-a]pyridin-2-amine]
52.4 nM | CCN1CC[C@H]1COc1cnn(C)c1-c1ccn2nc(Nc3cnc(C)c(C)n3)cc2c1 [Example 359, N-(5,6-dimethylpyrazin-2-yl)-5-[4-[[(2S)-1-ethylazetidin-2-yl]methoxy]-2-methyl-pyrazol-3-yl]pyrazolo[1,5-a]pyridin-2-amine]
32.8 nM | Cn1ncc(COC2CNC2)c1-c1ccn2nc(NC(=O)C3CC3)cc2c1 [Example 360, N-[5-[4-(azetidin-3-yloxymethyl)-2-methyl-pyrazol-3-yl]pyrazolo[1,5-a]pyridin-2-yl]cyclopropanecarboxamide]
53.9 nM | CN1CC(OCc2cnn(C)c2-c2ccn3nc(NC(=O)C4CC4)cc3c2)C1 [Example 361, N-[5-[2-methyl-4-[(1-methylazetidin-3-yl)oxymethyl]pyrazol-3-yl]pyrazolo[1,5-a]pyridin-2-yl]cyclopropanecarboxamide]
52.8 nM | CN1CC[C@@H](OCc2cnn(C)c2-c2ccn3nc(NC(=O)C4CC4)cc3c2)C1 [Example 362, N-[5-[2-methyl-4-[[(3R)-1-methylpyrrolidin-3-yl]oxymethyl]pyrazol-3-yl]pyrazolo[1,5-a]pyridin-2-yl]cyclopropanecarboxamide]
51.9 nM | Cn1ncc(CO[C@H]2CCNC2)c1-c1ccn2nc(NC(=O)C3CC3)cc2c1 [Example 363, N-[5-[2-methyl-4-[[(3S)-pyrrolidin-3-yl]oxymethyl]pyrazol-3-yl]pyrazolo[1,5-a]pyridin-2-yl]cyclopropanecarboxamide]
2.9 nM | Cc1cc(Nc2cc3cc(-c4c(CO[C@H]5CN(C)C[C@H]5C)cnn4C)ccn3n2)nc(C)n1 [Example 367, (rac-cis)-N-(2,6-dimethylpyrimidin-4-yl)-5-[4-[(1,4-dimethylpyrrolidin-3-yl)oxymethyl]-2-methyl-pyrazol-3-yl]pyrazolo[1,5-a]pyridin-2-amine]
7.2 nM | Cc1cncc(Nc2cc3cc(-c4c(CO[C@H]5CN(C)C[C@@H]5C)cnn4C)ccn3n2)n1 [Example 373, (rac-trans)-5-[4-[(1,4-dimethylpyrrolidin-3-yl)oxymethyl]-2-methyl-pyrazol-3-yl]-N-(6-methylpyrazin-2-yl)pyrazolo[1,5-a]pyridin-2-amine]
3.6 nM | CN1CC[C@@H]1COc1cnn(C)c1-c1ccn2nc(Nc3cnc(C(C)(C)C)cn3)cc2c1 [Example 381, N-(5-tert-butylpyrazin-2-yl)-5-[2-methyl-4-[[(2R)-1-methylazetidin-2-yl]methoxy]pyrazol-3-yl]pyrazolo[1,5-a]pyridin-2-amine]
85.8 nM | Cc1onc(OC[C@H]2C[C@H](N)C2)c1-c1ccn2nc(NC(=O)C3CC3)cc2c1 [Example 387, N-[5-[3-[(3-aminocyclobutyl)methoxy]-5-methyl-isoxazol-4-yl]pyrazolo[1,5-a]pyridin-2-yl]cyclopropanecarboxamide]
70.8 nM | COC[C@@H]1C[C@H](Oc2noc(C)c2-c2ccn3nc(Nc4cc(C)c(C)nn4)cc3c2)CN1 [Example 390, N-(5,6-dimethylpyridazin-3-yl)-5-[3-[(3S,5S)-5-(methoxymethyl)pyrrolidin-3-yl]oxy-5-methyl-isoxazol-4-yl]pyrazolo[1,5-a]pyridin-2-amine]
73 nM | Cc1ccc(Nc2cc3cc(-c4c(OC[C@H]5CCN5)cnn4C)ccn3n2)nn1 [Example 392, 5-[4-[[(2R)-azetidin-2-yl]methoxy]-2-methyl-pyrazol-3-yl]-N-(6-methylpyridazin-3-yl)pyrazolo[1,5-a]pyridin-2-amine]
